{"source": "patent US9814726B2", "about": "“Composition for preventing or treating fatty liver diseases” (LG CHEM, LTD., priority 2014, dated 2017)", "key": {"[1]": {"test_system": "C57BL/6J Lep(−/−) male (ob/ob) mice", "test": "Obese fatty liver model: ob/ob mice on normal chow diet, oral treatment for 4 weeks, liver and serum analysis", "format": "in vivo, mouse", "procedure": "As experimental animals, 6-week-old male ob/+ mouse for control, and 6-week-old C57BL/6J Lep(−/−) male (ob/ob) mice were purchased from Harlan (Indianapolis, Ind.). The purchased mice were maintained under standard condition (25° C., 55% humidity and 12-hour light periodicity) with normal chow diet. 30 mice were divided into 3 groups, 10 mice in each group. Group 1 included 10 C57BL/6J(ob/+ control group) mice, Group 2 was vehicle-treated 10 ob/ob mice treated with saline solution, and Group 3 was a group in which (tetrahydropyran-4-yl)-[2-phenyl-5-(1,1-dioxo-thiomorpholin-4-yl)methyl-1H-indol-7-yl]amine (LG Life Sciences Ltd., Daejeon, Republic of Korea) was treated once a day by 20 mg/kg dosage. Saline solution and (tetrahydropyran-4-yl)-[2-phenyl-5-(1,1-dioxo-thiomorpholin-4-yl)methyl-1H-indol-7-yl]amine solution were orally administered for 4 weeks. After treatment, animals were anesthetized and sacrificed, and livers were rapidly taken and stored for the next analysis. […]"}, "[2]": {"test_system": "ob/ob mice with MCD diet", "test": "Steatohepatitis model accompanying obesity: ob/ob mice with MCD (methionine choline-deficient) diet", "format": "in vivo, mouse"}, "[3]": {"conditions": "ob/ob mice, 20 mg/kg/day, FIG. 2"}, "[4]": {"conditions": "ob/ob mice, oral 20 mg/kg once a day, 4 weeks, p<0.001 vs vehicle"}, "[5]": {"conditions": "ob/ob mice, oral 20 mg/kg once a day, 4 weeks, vs vehicle"}, "[6]": {"conditions": "20 mg/kg/day, vs vehicle-treated group, FIG. 5A/5B"}}, "data": [{"smiles": "O=S1(=O)CCN(Cc2cc(NC3CCOCC3)c3[nH]c(-c4ccccc4)cc3c2)CC1", "note": "[Comp., (tetrahydropyran-4-yl)-[2-phenyl-5-(1,1-dioxo-thiomorpholin-4-yl)methyl-1H-indol-7-yl]amine]", "values": [{"measurement": "activation of the mitochondrial respiration chain complexes I, III, IV and V", "setting": "[1]; ob/ob mice liver, 20 mg/kg/day, FIG. 3", "value": "meaningfully increased"}, {"measurement": "OXPHOS complexes I, III, IV and V by BN-PAGE: binding between the complexes", "setting": "[1]; ob/ob mice treated for 4 weeks, 20 mg/kg/day", "value": "enhanced"}, {"measurement": "amount of TBARS (oxidative stress, lipid oxidation)", "setting": "[1]; [3]", "value": "significant decrease"}, {"measurement": "level of 3-NT (nitrotyrosine) in liver", "setting": "[1]; [3]", "value": "considerably decreased"}, {"measurement": "amount of TNF-alpha in minced liver samples (ELISA)", "setting": "[1]; ob/ob mice, 20 mg/kg/day, FIG. 4B", "value": "significantly low amount"}, {"measurement": "expression of liver mitochondrial complex I, III, IV and V", "setting": "[1]; ob/ob mice, 20 mg/kg/day, compared with ob/+ control group, FIG. 3A", "value": "remained up to the level of the control group"}, {"measurement": "expression of mRNA of TNF-α in the liver", "setting": "[1]; ob/ob mice, 20 mg/kg/day, vs vehicle", "value": "inhibited"}, {"measurement": "amount of IL-6 mRNA", "setting": "[1]; ob/ob mice, 20 mg/kg/day, vs vehicle group", "value": "no difference"}, {"measurement": "number of 8-OHdG positive liver cells (DNA damage by oxidative stress)", "setting": "[1]; ob/ob mice, 20 mg/kg/day, vs vehicle, FIG. 2", "value": "remarkably low"}, {"measurement": "phosphorylation of NF-κB p65, NF-κB p105, p38 and JNK 1/2 in liver (immunoblotting)", "setting": "[1]; ob/ob mice, 20 mg/kg/day, vs vehicle, FIG. 4A", "value": "significantly decreased"}, {"measurement": "inflammation reaction: infiltration of activated macrophages in liver (immune staining of F4/80 and Cd68)", "setting": "[1]; ob/ob mice, 20 mg/kg/day, vs vehicle, FIG. 4C and 4D", "value": "decreased"}, {"measurement": "fatty tissue in liver (H&E staining)", "setting": "[1]; ob/ob mice, oral 20 mg/kg once a day, 4 weeks, FIG. 1", "value": "remarkably decreased"}, {"measurement": "TG level in the blood serum", "setting": "[1]; ob/ob mice, oral 20 mg/kg once a day, 4 weeks, between groups (data not shown)", "value": "did not show much difference"}, {"measurement": "amount of liver TG", "setting": "[1]; [4]", "value": "significant decrease"}, {"measurement": "amount of liver cholesterol", "setting": "[1]; [4]", "value": "significant decrease"}, {"measurement": "ALT value in blood serum", "setting": "[1]; [5]", "value": "decreased"}, {"measurement": "AST value in blood serum", "setting": "[1]; [5]", "value": "decreased"}, {"measurement": "Oil-Red O stained area in liver", "setting": "[1]; ob/ob mice, oral 20 mg/kg once a day, 4 weeks, vs vehicle-treated group", "value": "remarkably decreased"}, {"measurement": "amount of ALT in blood serum", "setting": "[2]; 20 mg/kg/day", "value": "remarkably decreased"}, {"measurement": "amount of AST in blood serum", "setting": "[2]; 20 mg/kg/day", "value": "remarkably decreased"}, {"measurement": "liver TG amount", "setting": "[2]; 20 mg/kg/day (vehicle 400+/−80), FIG. 5C", "value": "210+/−20 mg/g liver"}, {"measurement": "phosphorylation of fibrosis markers (NF-γB p65, NF-κB p105, p38 and JNK 1/2)", "setting": "[2]; 20 mg/kg/day, FIG. 5D", "value": "inhibited"}, {"measurement": "decrease of liver TG amount", "setting": "[2]; 20 mg/kg/day, vs vehicle, FIG. 5C", "value": "about 50%"}, {"measurement": "expression of collagen I (liver fibrosis)", "setting": "[2]; [6]", "value": "inhibited"}, {"measurement": "intensity of trichrome staining (liver fibrosis)", "setting": "[2]; [6]", "value": "inhibited"}]}]}
